According to ChEMBL document CHEMBL5042524, “Discovery of Novel Histone Deacetylase 6 (HDAC6) Inhibitors with Enhanced Antitumor Immunity of Anti-PD-L1 Immunotherapy in Melanoma” (J Med Chem, 2022):
≈ marks a conversion by molar mass, not a printed value.

Assays:
B16-F10 [1] = experiment: Antitumour activity against mouse B16-F10 cells allografted in C57BL/6 mouse model assessed as decrease in PD-L1 expression level by Western blot analysis relative to control; assay type: functional; parameters: scale not given: the % may be the effect or the level left
B16-F10 [2] = experiment: Potentiation of antitumor activity against mouse B16-F10 cells allografted in C57BL/6 mouse model assessed as decrease in PD-L1 expression level in presence of 2-(5-chloro-2-(3-cyanobenzyloxy)-4-((2-methylbiphenyl-3-yl)methoxy)benzylamino)-2-methylpropanoic acid by Western blot analysis relative to control; assay type: functional; parameters: scale not given: the % may be the effect or the level left
B16-F10 [3] = experiment: Antitumour activity against mouse B16-F10 cells allografted in C57BL/6 mouse model assessed as increase in CD3 positive/CD4 positive cells in tumor at 10 mg/kg, ip administered for 14 days by flow cytometry analysis (Rvb= 8.73%); assay type: functional; conditions: time 14 day
B16-F10 [4] = experiment: Antitumour activity against mouse B16-F10 cells allografted in C57BL/6 mouse model assessed as increase in CD3 positive/CD8 positive cells in tumor at 10 mg/kg, ip administered for 14 days by flow cytometry analysis (Rvb= 6.65%); assay type: functional; conditions: time 14 day
[5] = Toxicity in C57BL/6 mouse allografted with B16-F10 cells assessed as body weight loss at 10 mg/kg, ip administered daily for 14 days; assay type: organism-based; conditions: in vivo, 336 h, time 14 day
Histone deacetylase 1 = Histone deacetylase 1 (Homo sapiens, UniProt Q13547); experiment: Inhibition of recombinant human HDAC1 expressed in baculovirus expression system using Ac-Leu-Gly-Lys (Ac)-AMC as substrate preincubated for 5 mins followed by substrate addition and measured after 30 mins by fluorescence microtiter plate reader assay
Sequence of Histone deacetylase 1 (Q13547 whole entry): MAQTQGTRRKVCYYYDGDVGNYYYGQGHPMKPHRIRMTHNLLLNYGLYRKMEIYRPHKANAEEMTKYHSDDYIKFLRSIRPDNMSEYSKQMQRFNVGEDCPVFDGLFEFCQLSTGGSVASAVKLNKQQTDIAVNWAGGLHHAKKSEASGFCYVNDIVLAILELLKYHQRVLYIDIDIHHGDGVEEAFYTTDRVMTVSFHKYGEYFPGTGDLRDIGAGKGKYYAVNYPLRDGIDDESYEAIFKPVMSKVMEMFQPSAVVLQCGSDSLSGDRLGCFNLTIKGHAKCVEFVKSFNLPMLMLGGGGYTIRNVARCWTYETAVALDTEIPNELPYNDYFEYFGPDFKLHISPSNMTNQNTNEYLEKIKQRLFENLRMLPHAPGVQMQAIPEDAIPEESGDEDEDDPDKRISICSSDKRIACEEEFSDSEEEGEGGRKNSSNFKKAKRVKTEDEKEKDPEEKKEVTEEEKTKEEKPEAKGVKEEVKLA

Histone deacetylase 3 = Histone deacetylase 3 (Homo sapiens, UniProt O15379); experiment: Inhibition of recombinant human His-tagged HDAC3 expressed in baculovirus insect cells using Ac-Leu-Gly-Lys (Ac)-AMC as substrate preincubated for 5 mins followed by substrate addition and measured after 30 mins by fluorescence microtiter plate reader assay
Sequence of Histone deacetylase 3 (O15379 whole entry): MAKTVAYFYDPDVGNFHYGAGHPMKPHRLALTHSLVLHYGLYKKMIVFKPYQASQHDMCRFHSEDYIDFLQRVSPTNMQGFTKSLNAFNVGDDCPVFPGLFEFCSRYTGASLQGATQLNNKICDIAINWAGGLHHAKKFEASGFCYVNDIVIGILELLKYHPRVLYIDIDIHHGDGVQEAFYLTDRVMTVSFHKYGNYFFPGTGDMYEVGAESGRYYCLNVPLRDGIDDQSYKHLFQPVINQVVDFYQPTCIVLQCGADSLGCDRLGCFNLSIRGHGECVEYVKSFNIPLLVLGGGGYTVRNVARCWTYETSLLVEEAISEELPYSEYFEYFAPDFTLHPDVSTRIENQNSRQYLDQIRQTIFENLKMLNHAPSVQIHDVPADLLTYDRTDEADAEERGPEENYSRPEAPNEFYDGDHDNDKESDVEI

Histone deacetylase 8 = target: T1, Histone deacetylase 8 (Homo sapiens, UniProt Q9BY41); experiment: Inhibition of full length recombinant human C-terminal His tagged HDAC8 expressed in baculovirus infected Sf9 insect cells using Ac-Leu-GlyLys (Tfa)-AMC as substrate preincubated for 5 mins followed by substrate addition and measured after 30 mins by fluorescence microtiter plate reader assay
T1 sequence (Q9BY41 whole entry): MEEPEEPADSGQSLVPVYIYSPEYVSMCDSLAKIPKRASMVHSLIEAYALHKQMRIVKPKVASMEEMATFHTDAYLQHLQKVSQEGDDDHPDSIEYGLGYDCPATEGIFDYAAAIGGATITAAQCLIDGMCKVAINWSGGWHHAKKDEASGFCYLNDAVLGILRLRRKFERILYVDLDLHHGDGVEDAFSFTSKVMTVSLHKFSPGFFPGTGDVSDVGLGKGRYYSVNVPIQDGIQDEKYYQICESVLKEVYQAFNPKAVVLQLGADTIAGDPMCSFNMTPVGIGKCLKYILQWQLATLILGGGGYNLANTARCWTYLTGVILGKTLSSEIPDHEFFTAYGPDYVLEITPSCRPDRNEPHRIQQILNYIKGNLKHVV

HCT-116 = experiment: cells; assay type: functional, cell-based; conditions: Homo sapiens, HCT-116, 48 h
Description: Antiproliferative activity against human HCT-116 cells assessed as inhibition of cell proliferation measured after 48 hrs by MTT assay

A549 = experiment: cells; assay type: functional, cell-based; conditions: Homo sapiens, A549, 48 h
Description: Antiproliferative activity against human A549 cells assessed as inhibition of cell proliferation measured after 48 hrs by MTT assay

MCF7 = experiment: cells; assay type: functional, cell-based; conditions: Homo sapiens, MCF7, 48 h
Description: Antiproliferative activity against human MCF7 cells assessed as inhibition of cell proliferation measured after 48 hrs by MTT assay

[6] = Cytotoxicity against human Jurkat cells assessed as reduction in cell viability incubated for 72 hrs by CCK-8 assay
B16-F10 [7] = experiment: cells; assay type: functional, cell-based; conditions: Mus musculus, B16-F10, 48 h
Description: Antiproliferative activity against mouse B16-F10 cells assessed as inhibition of cell proliferation measured after 48 hrs by MTT assay

[8] = Antiproliferative activity against human YCC-11 cells assessed as cell growth inhibition; assay type: functional, cell-based
[9] = Antiproliferative activity against human YCC3/7 cells assessed as cell growth inhibition; assay type: functional, cell-based
[10] = Aqueous solubility of the compound incubated for 24 hrs by HPLC based shake-flask method; assay type: physicochemical; conditions: buffer
B16-F10 [11] = experiment: Antitumor activity against mouse B16-F10 cells allografted in C57BL/6 mouse assessed as tumor growth inhibition at 50 mg/kg, ip administered daily for 14 days by caliper method (Rvb= 63%); assay type: functional; conditions: 336 h, time 14 day, read-out: TGI
B16-F10 [12] = experiment: Antitumour activity against mouse B16-F10 cells allografted in C57BL/6 mouse model assessed as increase in acetylated alpha tubulin expression level in tumor at 50 mg/kg, ip measured after 14 days by […] based microscopic analysis (Rvb =1.77%); assay type: functional; conditions: time 14 day
[13] = Toxicity in C57BL/6 mouse allografted with B16-F10 cells assessed as body weight loss at 50 mg/kg, ip administered daily for 14 days; assay type: organism-based; conditions: in vivo, 336 h, time 14 day

IC50 (Histone deacetylase 1) [nM]	IC50 (Histone deacetylase 3) [nM]	IC50 (Histone deacetylase 8) [nM]	IC50 (HCT-116) [nM]	IC50 (A549) [nM]	IC50 (MCF7) [nM]	IC50 (B16-F10 [7]) [nM]	solubility thermodynamic at 24 h [10] [µg/mL]	Structure (SMILES)	Activity (B16-F10 [1]) [%]	Activity (B16-F10 [2]) [%]	Activity (B16-F10 [3]) [%]	Activity (B16-F10 [4]) [%]	Activity [5]	IC50 at 72 h [6] [nM]	IC50 [8] [nM]	IC50 [9] [nM]	inhibition in vivo at 50 mg/kg (B16-F10 [11]) [%]	Activity (B16-F10 [12]) [%]	Activity [13]
								Cc1c(COc2cc(OCc3cccc(C#N)c3)c(CNC(C)(C)C(=O)O)cc2Cl)cccc1-c1ccccc1	45	70	15.4	11.2	Non-Toxic						
260	760	6210	1470	> 10000	2820	9410	16.1 (≈ 36 µM)	CC(C)(C)OC(=O)Nc1ccc(-c2cc(C(=O)NCCCCCCC(=O)NO)no2)cc1						610	4080	6250	52	37.9	Non-Toxic
